From publication PMC3314937, “Identifying improved TSPO PET imaging probes through biomathematics: The impact of multiple TSPO binding sites in vivo” (Neuroimage, 2012)
Where two headings read alike, the source gives them in different places. Marks after values point to notes of the source that are not given here.

Key:
[1] = tested on: TSPO; test: competition assays with ^3H-PK11195 for each binding class; parameters: species or system human
[2] = tested on: TSPO; parameters: method as in Owen et al. (2010, 2011); conditions: 37 °C, ref Owen et al. (2010, 2011), cited from earlier work; for Bmax-H: HABs, ^3H-PBR28 values also used for PBR111 and DPA713, ^3H-PK11195 for PK11195; for Bmax-L: LABs; for Bmax-M: MABs, both high and low affinity sites, Bmax_H used for PK11195
[3] = equilibrium dialysis, free fractions in plasma and brain tissue; conditions: 1 μg/g, dialysis against PBS pH 7.4, 5 h, 37 °C
Protocol: (§1) The fP and fND were measured from Landrace pig tissue (blood and brain — obtained from Charles River Laboratories, Tranent, Scotland) using equilibrium dialysis ([Summerfield et al., 2006]). In brief, the cold test compounds were spiked into plasma or brain homogenate at a concentration of 1 μg/g and dialysed against phosphate buffered saline (PBS, pH 7.4) for 5 h at 37 °C. Aliquots (20–50 μL) of plasma, brain and dialysate were taken and extracted using acetonitrile containing internal standard, followed by LC–MS/MS analysis. The free fractions were determined as the concentration ratio of analyte in dialysate to that in plasma or brain.

[4] = in vitro; conditions: Landrace, pig, pH 7.4
Protocol: as §1

[5] = target: TSPO; conditions: ^3H-PK11195, 37 °C, ref Owen et al. (2010, 2011), cited from earlier work

Row | SMILES | affinity ratio (high:low binding site) [1] | Bmax-H [2] | Bmax-L [2] | Bmax-M [2] | fND (free fraction in tissue) ([3]; pig brain homogenate) | fp (free fraction in plasma) ([3]; pig plasma) | fraction unbound at 5 h, 1 μg/g ([4]; brain homogenate) | fraction unbound at 5 h, 1 μg/g ([4]; plasma) | Ki ([5]; high affinity site (HABs), read-out: Ki-H) | Ki ([5]; low affinity site (LABs), read-out: Ki-L)
1 | CCN(CC)C(=O)Cc1c(-c2ccc(OCCC[18F])cc2)nc2ccc(Cl)cn12 [^18F-PBR111] | ~ 4 | 193 ± 66 (n = 6) nM | 99.4 ± 35 (n = 5) nM | 186 ± 37 (n = 4) nM | 0.06 ± 0.005 (n = 6) | 0.19 ± 0.018 (n = 6) | – | – | – | –
2 | CC[C@@H](C)N(C)C(=O)c1cc2ccccc2c(-c2ccccc2Cl)n1 [^11C-(R)-PK11195] | – | 433 ± 154 (n = 9) nM | 506 ± 131 (n = 5) nM | 433 ± 154 ^b (n = 9) nM | – | – | 0.01 ± 0.002 | 0.14 ± 0.039 | – | –
3 | CCN(CC)C(=O)Cc1c(-c2ccc(O[11CH3])cc2)nn2c(C)cc(C)nc12 [^11C-DPA713] | – | 193 ± 66 (n = 6) nM | 99.4 ± 35 (n = 5) nM | 186 ± 37 (n = 4) nM | – | – | – | – | – | –
4 | CCN(CC)C(=O)Cc1c(-c2ccc(OCCCF)cc2)nc2ccc(Cl)cn12 [^18F-PBR111] | – | – | – | – | – | – | – | – | 15.6 ± 3.7 nM | 61.8 ± 10.7 nM
